{"source": "patent US8901313B2", "about": "“6,5-heterocyclic propargylic alcohol compounds and uses therefor” (Genentech, Inc., priority 2011, dated 2014)", "data": [{"target": "T1, nuclear factor-kappa B (NF-kB)-inducing kinase (NIK) (Homo sapiens, UniProt Q99558)", "T1 construct": "made in house; host or cells: baculovirus-infected insect cells", "T1 sequence (Q99558 whole entry)": "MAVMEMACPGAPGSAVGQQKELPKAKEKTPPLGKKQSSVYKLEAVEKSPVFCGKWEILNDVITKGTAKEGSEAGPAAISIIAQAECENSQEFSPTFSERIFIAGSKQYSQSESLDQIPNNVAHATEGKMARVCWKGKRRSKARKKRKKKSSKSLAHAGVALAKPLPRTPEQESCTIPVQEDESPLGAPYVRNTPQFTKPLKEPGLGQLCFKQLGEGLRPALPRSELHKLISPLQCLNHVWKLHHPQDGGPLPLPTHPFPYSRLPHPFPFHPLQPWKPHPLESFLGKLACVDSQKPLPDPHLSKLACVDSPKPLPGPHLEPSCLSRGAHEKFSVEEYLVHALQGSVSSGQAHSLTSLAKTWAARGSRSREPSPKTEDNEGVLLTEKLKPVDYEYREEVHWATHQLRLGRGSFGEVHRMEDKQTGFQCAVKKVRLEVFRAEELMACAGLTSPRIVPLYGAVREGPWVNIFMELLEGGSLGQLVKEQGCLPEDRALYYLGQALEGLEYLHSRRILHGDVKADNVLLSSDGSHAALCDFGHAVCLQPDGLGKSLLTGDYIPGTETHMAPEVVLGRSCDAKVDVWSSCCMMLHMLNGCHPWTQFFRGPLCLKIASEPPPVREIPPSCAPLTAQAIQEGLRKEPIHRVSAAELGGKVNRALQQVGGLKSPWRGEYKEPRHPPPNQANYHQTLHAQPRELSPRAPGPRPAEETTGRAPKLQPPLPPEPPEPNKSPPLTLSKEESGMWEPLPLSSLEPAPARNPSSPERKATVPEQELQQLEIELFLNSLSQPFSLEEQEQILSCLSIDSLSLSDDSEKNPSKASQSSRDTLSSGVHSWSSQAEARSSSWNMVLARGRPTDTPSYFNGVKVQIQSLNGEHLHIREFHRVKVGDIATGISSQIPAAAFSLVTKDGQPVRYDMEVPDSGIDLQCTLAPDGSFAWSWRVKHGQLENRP", "test": "NIK Enzyme Inhibition Assay (Transcreener ADP assay)", "assay_type": "biochemical", "settings": "purified NIK 0.2-1 nM, 10 uM ATP, fluorescence polarization, Morrison's quadratic equation; read-out: inhibitory value (Ki) for NIK", "units": {"Ki": "nM"}, "values": [{"smiles": "CNc1nccc(-n2ncc3ccc(C#C[C@@](C)(O)c4cc(C)on4)cc32)n1", "note": "[Example T1.1-101, (2R)-4-[1-[2-(methylamino)pyrimidin-4-yl]indazol-6-yl]-2-(5-methylisoxazol-3-yl)but-3-yn-2-ol]", "Ki": 150}, {"smiles": "Cc1nn(-c2ccnc(N)n2)c2cc(C#CC(C)(O)C(=O)N3CC(O)C3)ccc12", "note": "(centres unmarked) [Example T1.1-102, 4-[1-(2-aminopyrimidin-4-yl)-3-methyl-indazol-6-yl]-2-hydroxy-1-(3-hydroxyazetidin-1-yl)-2-methyl-but-3-yn-1-one]", "Ki": 310}, {"smiles": "Cc1nn(-c2ccnc(N)n2)c2cc(C#CC(C)(O)C(=O)N(C)C)ccc12", "note": "(centres unmarked) [Example T1.1-103, 4-[1-(2-aminopyrimidin-4-yl)-3-methyl-indazol-6-yl]-2-hydroxy-N,N,2-trimethyl-but-3-ynamide]", "Ki": 315}, {"smiles": "Cc1cc(C(C)(O)C#Cc2ccc3nc(C(=O)N4CCCC4)n(-c4ccnc(N)n4)c3c2)no1", "note": "(centres unmarked) [Example T1.1-104, [1-(2-aminopyrimidin-4-yl)-6-[3-hydroxy-3-(5-methylisoxazol-3-yl)but-1-ynyl]benzimidazol-2-yl]-pyrrolidin-1-yl-methanone]", "Ki": 342}, {"smiles": "Cc1nc2ccc(C#CC3(O)CCCCC3)cc2n1-c1ncnc(N)n1", "note": "[Example T1.1-106, 1-[2-[3-(4-amino-1,3,5-triazin-2-yl)-2-methyl-benzimidazol-5-yl]ethynyl]cyclohexanol]", "Ki": 775}, {"smiles": "Cc1nc2ccc(C#CC3(CO)CCCC3)cc2n1-c1ncnc(N)n1", "note": "[Example T1.1-107, [1-[2-[3-(4-amino-1,3,5-triazin-2-yl)-2-methyl-benzimidazol-5-yl]ethynyl]cyclopentyl]methanol]", "Ki": 913}, {"smiles": "CC(O)(C#Cc1ccc2nc(OCCO)n(-c3ccnc(N)n3)c2c1)c1ccc(F)cn1", "note": "(centres unmarked) [Example T1.1-108, 4-[3-(2-aminopyrimidin-4-yl)-2-(2-hydroxyethoxy)benzimidazol-5-yl]-2-(5-fluoro-2-pyridyl)but-3-yn-2-ol]", "Ki": 1600}, {"smiles": "Cc1nc2ccc(C#CC(O)C3CC(O)C3)cc2n1-c1ncnc(N)n1", "note": "(centres unmarked) [Example T1.1-109, 3-[3-[3-(4-amino-1,3,5-triazin-2-yl)-2-methyl-benzimidazol-5-yl]-1-hydroxy-prop-2-ynyl]cyclobutanol]", "Ki": 1600}, {"smiles": "Cc1nc2ccc(C#CC3(O)CC4CCC3C4)cc2n1-c1ncnc(N)n1", "note": "(centres unmarked) [Example T1.1-110, 2-[2-[3-(4-amino-1,3,5-triazin-2-yl)-2-methyl-benzimidazol-5-yl]ethynyl] norbornan-2-ol]", "Ki": 1700}, {"smiles": "Cc1nc2ccc(C#CC(C)(O)c3nc(CO)cs3)cc2n1-c1ncnc(N)n1", "note": "(centres unmarked) [Example T1.1-111, 4-[3-(4-amino-1,3,5-triazin-2-yl)-2-methyl-benzimidazol-5-yl]-2-[4-(hydroxy-methyl)thiazol-2-yl]but-3-yn-2-ol]", "Ki": 1700}, {"smiles": "Cc1nc2ccc(C#CC(C)(O)c3nc(CC#N)cs3)cc2n1-c1ncnc(N)n1", "note": "(centres unmarked) [Example T1.1-112, 2-[2-[3-[3-(4-amino-1,3,5-triazin-2-yl)-2-methyl-benzimidazol-5-yl]-1-hydroxy-1-methyl-prop-2-ynyl]thiazol-4-yl] acetonitrile]", "Ki": 1800}, {"smiles": "Cc1nc2ccc(C#CC3(O)CC(C#N)C3)cc2n1-c1ncnc(N)n1", "note": "(centres unmarked) [Example T1.1-113, 3-[2-[3-(4-amino-1,3,5-triazin-2-yl)-2-methyl-benzimidazol-5-yl]ethynyl]-3-hydroxy-cyclobutanecarbonitrile]", "Ki": 2400}, {"smiles": "Cc1nc2ccc(C#CC3(O)CCCOC3)cc2n1-c1ncnc(N)n1", "note": "(centres unmarked) [Example T1.1-114, 3-[2-[3-(4-amino-1,3,5-triazin-2-yl)-2-methyl-benzimidazol-5-yl]ethynyl] tetrahydropyran-3-ol]", "Ki": 2600}, {"smiles": "Cc1nc2ccc(C#CC3(O)CC(CO)C3)cc2n1-c1ncnc(N)n1", "note": "(centres unmarked) [Example T1.1-115, 1-[2-[3-(4-amino-1,3,5-triazin-2-yl)-2-methyl-benzimidazol-5-yl]ethynyl]-3-(hydroxymethyl)cyclobutanol]", "Ki": 3900}, {"smiles": "Cc1nc2ccc(C#CC3(O)COC3)cc2n1-c1ncnc(N)n1", "note": "[Example T1.1-116, 3-[2-[3-(4-amino-1,3,5-triazin-2-yl)-2-methyl-benzimidazol-5-yl]ethynyl] oxetan-3-ol]", "Ki": "≥ 5000"}, {"smiles": "CN(C)C(=O)c1nn(-c2ccnc(N)n2)c2cc(C#CC3(O)CCn4cncc43)ccc12", "note": "(centres unmarked) [Example T1.1-117, 1-(2-aminopyrimidin-4-yl)-6-[2-(7-hydroxy-5,6-dihydropyrrolo[1,2-c]imidazol-7-yl)ethynyl]-N,N-dimethyl-indazole-3-carboxamide]", "Ki": "≥ 5000"}, {"smiles": "Cc1nc2ccc(C#CC(C)(C)CO)cc2n1-c1ncnc(N)n1", "note": "[Example T1.1-118, 4-[3-(4-amino-1,3,5-triazin-2-yl)-2-methyl-benzimidazol-5-yl]-2,2-dimethyl-but-3-yn-1-ol]", "Ki": "≥ 5000"}, {"smiles": "CNc1ccnc(-n2ncc3ccc(C#CC(C)(O)c4cc(C)on4)cc32)n1", "note": "(centres unmarked) [Example T1.1-119, 4-[1-[4-(methylamino)pyrimidin-2-yl]indazol-6-yl]-2-(5-methyl-isoxazol-3-yl)but-3-yn-2-ol]", "Ki": "≥ 5000"}, {"smiles": "Nc1nccc(-n2ncc3c(F)cc(C#CC4(O)CCCC4)cc32)n1", "note": "[Example T1.1-120, 1-[2-[1-(2-aminopyrimidin-4-yl)-4-fluoro-indazol-6-yl]ethynyl] cyclopentanol]", "Ki": "≥ 5000"}, {"smiles": "CC(O)(C#Cc1ccc2c(C(=O)N3CCOCC3)nn(-c3ccnc(N)n3)c2c1)c1ccncn1", "note": "(centres unmarked) [Example T1.1-121, [1-(2-aminopyrimidin-4-yl)-6-(3-hydroxy-3-pyrimidin-4-yl-but-1-ynyl)indazol-3-yl]-morpholino-methanone]", "Ki": "≥ 5000"}, {"smiles": "Cc1nc([C@](C)(O)C#Cc2ccc3nc(OCCF)n(-c4ccnc(N)n4)c3c2)no1", "note": "[Example T1.1-122, (2R)-4-[3-(2-aminopyrimidin-4-yl)-2-(2-fluoroethoxy)benzimidazol-5-yl]-2-(5-methyl-1,2,4-oxadiazol-3-yl)but-3-yn-2-ol]", "Ki": 0.3}, {"smiles": "CC(O)(C#Cc1ccc2nc(OCCO)n(-c3ccnc(N)n3)c2c1)c1ccc(Cl)cn1", "note": "(centres unmarked) [Example T1.1-123, 4-[3-(2-aminopyrimidin-4-yl)-2-(2-hydroxyethoxy)benzimidazol-5-yl]-2-(5-chloro-2-pyridyl)but-3-yn-2-ol]", "Ki": "≥ 5000"}, {"smiles": "Cc1nn(-c2ccnc(N)n2)c2cc(C#CC(C)(O)c3nccs3)ccc12", "note": "(centres unmarked) [Example T1.1-125, 4-[1-(2-aminopyrimidin-4-yl)-3-methyl-indazol-6-yl]-2-thiazol-2-yl-but-3-yn-2-ol]", "Ki": 1}, {"smiles": "Cc1nc2ccc(C#CC(C)(O)Cn3cccn3)cc2n1-c1ncnc(N)n1", "note": "(centres unmarked) [Example T1.1-126, 4-[3-(4-amino-1,3,5-triazin-2-yl)-2-methyl-benzimidazol-5-yl]-2-methyl-1-pyrazol-1-yl-but-3-yn-2-ol]", "Ki": "≥ 5000"}, {"smiles": "CC(O)(C#Cc1ccc2c(C(=O)N3CCOCC3)nn(-c3ccnc(N)n3)c2c1)c1ncccn1", "note": "(centres unmarked) [Example T1.1-130, [1-(2-aminopyrimidin-4-yl)-6-(3-hydroxy-3-pyrimidin-2-yl-but-1-ynyl)indazol-3-yl]-morpholino-methanone]", "Ki": "≥ 5000"}, {"smiles": "COCCNc1nc2ccc(C#CC(C)(O)c3nc(C)cs3)cc2n1-c1ccnc(N)n1", "note": "(centres unmarked) [Example T1.1-131, 4-[3-(2-aminopyrimidin-4-yl)-2-(2-methoxyethylamino)benzimidazol-5-yl]-2-(4-methylthiazol-2-yl)but-3-yn-2-ol]", "Ki": 9}, {"smiles": "CC(O)(C#Cc1ccc2nc(OCCO)n(-c3ccnc(N)n3)c2c1)c1ccc(Cl)cn1", "note": "(centres unmarked) [Example T1.1-133, 4-[3-(2-aminopyrimidin-4-yl)-2-(2-hydroxyethoxy)benzimidazol-5-yl]-2-(5-chloro-2-pyridyl)but-3-yn-2-ol]", "Ki": 0.4}, {"smiles": "Cc1nn(-c2ccnc(N)n2)c2cc(C#CC3(O)CCCN(C)C3=O)ccc12", "note": "(centres unmarked) [Example T1.1-136, 3-[2-[1-(2-aminopyrimidin-4-yl)-3-methyl-indazol-6-yl]ethynyl]-3-hydroxy-1-methyl-piperidin-2-one]", "Ki": 2}, {"smiles": "Cc1nnc(C(C)(O)C#Cc2ccc3c(C(=O)N4CCOCC4)nn(-c4ccnc(N)n4)c3c2)o1", "note": "(centres unmarked) [Example T1.1-137, [1-(2-aminopyrimidin-4-yl)-6-[3-hydroxy-3-(5-methyl-1,3,4-oxadiazol-2-yl)but-1-ynyl]indazol-3-yl]-morpholino-methanone]", "Ki": 7}, {"smiles": "COCCN(C)C(=O)c1nn(-c2ccnc(N)n2)c2cc(C#CC(C)(O)c3ncccn3)ccc12", "note": "(centres unmarked) [Example T1.1-138, 1-(2-aminopyrimidin-4-yl)-6-(3-hydroxy-3-pyrimidin-2-yl-but-1-ynyl)-N-(2-methoxyethyl)-N-methyl-indazole-3-carboxamide]", "Ki": 0.2}, {"smiles": "CC(O)(C#Cc1ccc2c(C(=O)N3CC(F)(F)C3)nn(-c3ccnc(N)n3)c2c1)c1ncccn1", "note": "(centres unmarked) [Example T1.1-139, [1-(2-aminopyrimidin-4-yl)-6-(3-hydroxy-3-pyrimidin-2-yl-but-1-ynyl)indazol-3-yl]-(3,3-difluoroazetidin-1-yl)methanone]", "Ki": 20}, {"smiles": "CC(O)(C#Cc1ccc2c(C(=O)N3CC4CC4C3)nn(-c3ccnc(N)n3)c2c1)c1ncccn1", "note": "(centres unmarked) [Example T1.1-140, [1-(2-aminopyrimidin-4-yl)-6-(3-hydroxy-3-pyrimidin-2-yl-but-1-ynyl)indazol-3-yl]-(3-azabicyclo[3.1.0]hexan-3-yl)methanone]", "Ki": 5.28}, {"smiles": "CN(C(=O)c1nn(-c2ccnc(N)n2)c2cc(C#CC(C)(O)c3ncccn3)ccc12)c1ccccn1", "note": "(centres unmarked) [Example T1.1-142, 1-(2-aminopyrimidin-4-yl)-6-(3-hydroxy-3-pyrimidin-2-yl-but-1-ynyl)-N-methyl-N-(2-pyridyl)indazole-3-carboxamide]", "Ki": 7}, {"smiles": "CC(O)(C#Cc1ccc2c(C(=O)Nc3cccnc3)nn(-c3ccnc(N)n3)c2c1)c1ncccn1", "note": "(centres unmarked) [Example T1.1-143, 1-(2-aminopyrimidin-4-yl)-6-(3-hydroxy-3-pyrimidin-2-yl-but-1-ynyl)-N-(3-pyridyl) indazole-3-carboxamide]", "Ki": 2}, {"smiles": "CC(O)(C#Cc1ccc2c(C(=O)N3CCOCC3)nn(-c3ccnc(N)n3)c2c1)c1ncco1", "note": "(centres unmarked) [Example T1.1-144, [1-(2-aminopyrimidin-4-yl)-6-(3-hydroxy-3-oxazol-2-yl-but-1-ynyl)indazol-3-yl]-morpholino-methanone]", "Ki": 3}]}]}
